Assay results: patent publication US20220323406A1, “METHODS AND COMPOSITIONS FOR DIFFERENTIATING STEM CELLS” (Massachusetts Institute of Technology, priority 2019, published 2022)
Where a name gives a salt, the structure may show the parent alone.

Key:
[1] = tested on: ENR+CD organoids (ISC to Paneth cell differentiation); experiment: Primary screen: CCh-stimulated lysozyme secretion LYZ.S, 2.5-D 384-well ENR+CD organoid differentiation; assay type: cell-based, mouse; settings: primary screen
Excerpt: (§1) High-throughput screening.

[2] = tested on: ENR+CD organoids (ISC to Paneth cell differentiation); experiment: Primary screen: basal (non-stimulated) lysozyme secretion LYZ.NS, 2.5-D 384-well ENR+CD organoid differentiation; assay type: cell-based, mouse
Excerpt: as §1

ENR+CD organoids = experiment: Primary screen: ATP (CellTiter-Glo 3D, CTG) cell number/viability, 2.5-D 384-well ENR+CD organoids; settings: primary screen; for Z.CTG: standard z score;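 as to all read-outs here: compounds given at plating and again on day 3 over a 6-day differentiation from ENR+CV stem-cell-enriched precursors, ATP measured on day 6, plate median as control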
[3] = dose 0.40 uM, FC vs plate median
[4] = dose 2.00 uM, FC vs plate median
[5] = dose 10.00 uM, FC vs plate median
[6] = primary screen, dose 0.40 uM, standard z score
[7] = primary screen, dose 2.00 uM, standard z score
[8] = primary screen, dose 10.00 uM, standard z score
[9] = primary screen; dose 0.40 uM; FC vs plate median
[10] = primary screen; dose 2.00 uM; FC vs plate median
[11] = primary screen; dose 10.00 uM; FC vs plate median
[12] = dose 0.08 uM, FC vs plate median

CN(Cc1cnc2nc(N)nc(N)c2n1)c1ccc(C(=O)N[C@@H](CCC(=O)O)C(=O)O)cc1 [Methotrexate]
Dose.FC.LYZ.S (log2 fold change) ([1]; dose 0.08 uM): −0.159
Dose.FC.LYZ.S [1, 3]: −0.129 log2 fold change
Dose.FC.LYZ.S [1, 4]: −0.177 log2 fold change
Dose.FC.LYZ.S [1, 5]: −0.156 log2 fold change
Dose.FC.LYZ.NS (log2 fold change) ([2]; primary screen, dose 0.08 uM): −0.097
Z.LYZ.NS (standard z score) ([2]; primary screen, dose 0.08 uM): −0.843
Z.LYZ.NS [2, 6]: −0.332
Z.LYZ.NS [2, 7]: −1.132
Z.LYZ.NS [2, 8]: −0.658
Dose.FC.LYZ.NS [2, 9]: −0.038 log2 fold change
Dose.FC.LYZ.NS [2, 10]: −0.130 log2 fold change
Dose.FC.LYZ.NS [2, 11]: −0.076 log2 fold change
Dose.FC.CTG (log2 fold change) (ENR+CD organoids; dose 0.08 uM): −0.615
Dose.FC.CTG (ENR+CD organoids; [3]): −0.722 log2 fold change
Dose.FC.CTG (ENR+CD organoids; [4]): −0.701 log2 fold change
Dose.FC.CTG (ENR+CD organoids; [5]): −0.642 log2 fold change

COc1cc2nc(N3CCN(C(=O)C4COc5ccccc5O4)CC3)nc(N)c2cc1OC (centres unmarked) [Doxazosin Mesylate]
Dose.FC.LYZ.S ([1]; dose 0.08 uM): 0.093 log2 fold change
Dose.FC.LYZ.S ([1]; dose 0.40 uM): 0.084 log2 fold change
Dose.FC.LYZ.S ([1]; dose 2.00 uM): 0.030 log2 fold change
Dose.FC.LYZ.S ([1]; dose 10.00 uM): 0.015 log2 fold change
Dose.FC.LYZ.NS ([2]; primary screen, dose 0.08 uM): 0.073 log2 fold change
Dose.FC.LYZ.NS ([2]; primary screen, dose 0.40 uM): 0.044 log2 fold change
Dose.FC.LYZ.NS ([2]; primary screen, dose 2.00 uM): 0.047 log2 fold change
Dose.FC.LYZ.NS ([2]; primary screen, dose 10.00 uM): 0.039 log2 fold change
Z.LYZ.NS ([2]; primary screen, standard z score, dose 0.08 uM): 0.633
Z.LYZ.NS ([2]; primary screen, standard z score, dose 0.40 uM): 0.387
Z.LYZ.NS ([2]; primary screen, standard z score, dose 2.00 uM): 0.413
Z.LYZ.NS ([2]; primary screen, standard z score, dose 10.00 uM): 0.340
Dose.FC.CTG (ENR+CD organoids; dose 0.08 uM): 0.072 log2 fold change
Dose.FC.CTG (ENR+CD organoids; dose 0.40 uM): −0.015 log2 fold change
Dose.FC.CTG (ENR+CD organoids; dose 2.00 uM): 0.146 log2 fold change
Dose.FC.CTG (ENR+CD organoids; dose 10.00 uM): 0.075 log2 fold change

C#Cc1cccc(Nc2ncnc3cc(OCCOC)c(OCCO)cc23)c1 [OSI-420]
Dose.FC.LYZ.S [1, 12]: 0.059 log2 fold change
Dose.FC.LYZ.S [1, 3]: −0.221 log2 fold change
Dose.FC.LYZ.S [1, 4]: −0.381 log2 fold change
Dose.FC.LYZ.S [1, 5]: −0.374 log2 fold change
Z.LYZ.NS ([2]; primary screen, dose 0.08 uM, standard z score): 1.002
Z.LYZ.NS [2, 6]: −1.948
Z.LYZ.NS [2, 7]: −2.498
Z.LYZ.NS [2, 8]: −2.833
Dose.FC.LYZ.NS ([2]; primary screen; dose 0.08 uM; FC vs plate median): 0.115 log2 fold change
Dose.FC.LYZ.NS [2, 9]: −0.224 log2 fold change
Dose.FC.LYZ.NS [2, 10]: −0.287 log2 fold change
Dose.FC.LYZ.NS [2, 11]: −0.325 log2 fold change
Z.CTG (ENR+CD organoids; dose 0.08 uM): 0.254
Z.CTG (ENR+CD organoids; dose 0.40 uM): −0.311
Z.CTG (ENR+CD organoids; dose 2.00 uM): −3.016
Z.CTG (ENR+CD organoids; dose 10.00 uM): −2.627
Dose.FC.CTG (ENR+CD organoids; [12]): 0.106 log2 fold change
Dose.FC.CTG (ENR+CD organoids; [3]): −0.130 log2 fold change
Dose.FC.CTG (ENR+CD organoids; [4]): −1.263 log2 fold change
Dose.FC.CTG (ENR+CD organoids; [5]): −1.100 log2 fold change

CCn1c(-c2nonc2N)nc2c(C#CC(C)(C)O)ncc(OC[C@H]3CCCNC3)c21 [GSK690693]
Dose.FC.LYZ.S (log2 fold change) ([1]; dose 0.08 uM): 0.019
Dose.FC.LYZ.S (log2 fold change) ([1]; dose 0.40 uM): 0.155
Dose.FC.LYZ.S (log2 fold change) ([1]; dose 2.00 uM): 0.124
Dose.FC.LYZ.S (log2 fold change) ([1]; dose 10.00 uM): −0.153
Dose.FC.LYZ.NS (log2 fold change) ([2]; primary screen, dose 0.08 uM): 0.045
Z.LYZ.NS (standard z score) ([2]; primary screen, dose 0.08 uM): 0.388
Dose.FC.LYZ.NS (log2 fold change) ([2]; primary screen, dose 0.40 uM): 0.047
Z.LYZ.NS (standard z score) ([2]; primary screen, dose 0.40 uM): 0.409
Dose.FC.LYZ.NS (log2 fold change) ([2]; primary screen, dose 2.00 uM): 0.122
Z.LYZ.NS (standard z score) ([2]; primary screen, dose 2.00 uM): 1.060
Dose.FC.LYZ.NS (log2 fold change) ([2]; primary screen, dose 10.00 uM): −0.080
Z.LYZ.NS (standard z score) ([2]; primary screen, dose 10.00 uM): −0.698
Dose.FC.CTG (log2 fold change) (ENR+CD organoids; dose 0.08 uM): 0.129
Z.CTG (standard z score) (ENR+CD organoids; dose 0.08 uM): 0.308
Dose.FC.CTG (log2 fold change) (ENR+CD organoids; dose 0.40 uM): 0.197
Z.CTG (standard z score) (ENR+CD organoids; dose 0.40 uM): 0.470
Dose.FC.CTG (log2 fold change) (ENR+CD organoids; dose 2.00 uM): −0.027
Z.CTG (standard z score) (ENR+CD organoids; dose 2.00 uM): −0.064
Dose.FC.CTG (log2 fold change) (ENR+CD organoids; dose 10.00 uM): −0.182
Z.CTG (standard z score) (ENR+CD organoids; dose 10.00 uM): −0.434

Cl.Cl.Cl.O[C@@H](COc1cccc2ncccc12)CN1CCN([C@@H]2c3ccccc3[C@@H]3[C@H](c4ccccc42)C3(F)F)CC1 [Zosuquidar (LY335979) 3HCl]
Dose.FC.LYZ.S ([1]; dose 0.08 uM): 0.124 log2 fold change
Dose.FC.LYZ.S ([1]; dose 0.40 uM): 0.127 log2 fold change
Dose.FC.LYZ.S ([1]; dose 2.00 uM): 0.129 log2 fold change
Dose.FC.LYZ.S ([1]; dose 10.00 uM): −0.200 log2 fold change
Dose.FC.LYZ.NS ([2]; primary screen, dose 0.08 uM): 0.096 log2 fold change
Z.LYZ.NS (standard z score) ([2]; primary screen, dose 0.08 uM): 0.839
Dose.FC.LYZ.NS ([2]; primary screen, dose 0.40 uM): 0.080 log2 fold change
Z.LYZ.NS (standard z score) ([2]; primary screen, dose 0.40 uM): 0.696
Dose.FC.LYZ.NS ([2]; primary screen, dose 2.00 uM): 0.207 log2 fold change
Z.LYZ.NS (standard z score) ([2]; primary screen, dose 2.00 uM): 1.802
Dose.FC.LYZ.NS ([2]; primary screen, dose 10.00 uM): −0.209 log2 fold change
Z.LYZ.NS (standard z score) ([2]; primary screen, dose 10.00 uM): −1.821
Dose.FC.CTG (ENR+CD organoids; dose 0.08 uM): 0.017 log2 fold change
Z.CTG (standard z score) (ENR+CD organoids; dose 0.08 uM): 0.041
Dose.FC.CTG (ENR+CD organoids; dose 0.40 uM): 0.197 log2 fold change
Z.CTG (standard z score) (ENR+CD organoids; dose 0.40 uM): 0.470
Dose.FC.CTG (ENR+CD organoids; dose 2.00 uM): 0.276 log2 fold change
Z.CTG (standard z score) (ENR+CD organoids; dose 2.00 uM): 0.659
Dose.FC.CTG (ENR+CD organoids; dose 10.00 uM): −0.193 log2 fold change
Z.CTG (standard z score) (ENR+CD organoids; dose 10.00 uM): −0.461
